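Five concentrations, 48 hours, 96-well plates. GI50 = concentration required for 50% inhibition of growth.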 Activity calls are given as the source filed them. No stated cut-off is given here; in the data, active = GI50 up to about 1.1 µM and inactive = higher.
Experiments:
Assay in all cases: NCI tumour cell line growth inhibition, 48 h
A549 = tested on: A549
COLO 205 = tested on: COLO 205
DU-145 = tested on: DU-145
HCT-116 = tested on: HCT-116
HL-60 = tested on: HL-60
KM12 = tested on: KM12
MDA-MB-435 = tested on: MDA-MB-435
NCI-H226 = tested on: NCI-H226
NCI-H23 = tested on: NCI-H23
OVCAR-3 = tested on: OVCAR-3
OVCAR-5 = tested on: OVCAR-5
OVCAR-8 = tested on: OVCAR-8
RPMI-8226 = tested on: RPMI-8226
SF-295 = tested on: SF-295
SK-MEL-28 = tested on: SK-MEL-28
SNB-75 = tested on: SNB-75
UACC-62 = tested on: UACC-62
A498 = tested on: A498
OVCAR-4 = tested on: OVCAR-4

Structure (SMILES): COc1cc2c3c(c1Oc1nnnn1-c1ccccc1)-c1c(ccc4c1OCO4)C[C@H]3N(C)CC2
- GI50 (A549): 45.6 µM (inactive)
- GI50 (COLO 205): 32.2 µM (inactive)
- GI50 (DU-145): 71 µM (inactive)
- GI50 (HCT-116): 31.7 µM (inactive)
- GI50 (HL-60): 15.1 µM (inactive)
- GI50 (KM12): 32.1 µM (inactive)
- GI50 (MDA-MB-435): 20.2 µM (inactive)
- GI50 (NCI-H226): > 100 µM (inactive)
- GI50 (NCI-H23): 36.6 µM (inactive)
- GI50 (OVCAR-3): 37.4 µM (inactive)
- GI50 (OVCAR-5): > 100 µM (inactive)
- GI50 (OVCAR-8): 47.8 µM (inactive)
- GI50 (RPMI-8226): 32.5 µM (inactive)
- GI50 (SF-295): 32.2 µM (inactive)
- GI50 (SK-MEL-28): 17.8 µM (inactive)
- GI50 (SNB-75): 22.6 µM (inactive)
- GI50 (UACC-62): 14.3 µM (inactive)

Structure (SMILES): O=c1nc(N2CCCC2)nc(N2CCCC2)s1
- GI50 (A498): > 100 µM (inactive)
- GI50 (A549): > 100 µM (inactive)
- GI50 (HCT-116): > 100 µM (inactive)
- GI50 (HL-60): > 100 µM (inactive)
- GI50 (KM12): > 100 µM (inactive)
- GI50 (NCI-H226): 7.21 µM (inactive)
- GI50 (NCI-H23): > 100 µM (inactive)
- GI50 (OVCAR-4): > 100 µM (inactive)
- GI50 (OVCAR-5): > 100 µM (inactive)
- GI50 (OVCAR-8): > 100 µM (inactive)
- GI50 (RPMI-8226): > 100 µM (inactive)
- GI50 (SF-295): > 100 µM (inactive)
- GI50 (SK-MEL-28): > 100 µM (inactive)
- GI50 (SNB-75): > 100 µM (inactive)
- GI50 (UACC-62): > 100 µM (inactive)

Structure (SMILES): Cc1c2ccncc2c(C)c2c1[nH]c1ccc(OC(C)C)cc12
- GI50 (A498): 1.47 µM (inactive)
- GI50 (A549): 1.52 µM (inactive)
- GI50 (COLO 205): 1.32 µM (inactive)
- GI50 (HCT-116): 0.736 µM (active)
- GI50 (HL-60): 1.84 µM (inactive)
- GI50 (KM12): 1.35 µM (inactive)
- GI50 (NCI-H226): 1.63 µM (inactive)
- GI50 (NCI-H23): 1.53 µM (inactive)
- GI50 (OVCAR-3): 1.61 µM (inactive)
- GI50 (OVCAR-4): 1.71 µM (inactive)
- GI50 (OVCAR-5): 1.48 µM (inactive)
- GI50 (OVCAR-8): 1.04 µM (active)
- GI50 (RPMI-8226): 1.99 µM (inactive)
- GI50 (SF-295): 1.36 µM (inactive)
- GI50 (SK-MEL-28): 1.66 µM (inactive)
- GI50 (SNB-75): 1.83 µM (inactive)

Structure (SMILES): COc1cccc([C@@]2(O)c3c(ccc(O)c3OC)[C@H]2OC)c1OC
- GI50 (A498): 58.1 µM (inactive)
- GI50 (A549): 37 µM (inactive)
- GI50 (HL-60): 19.3 µM (inactive)
- GI50 (KM12): 24.9 µM (inactive)
- GI50 (NCI-H226): 43.5 µM (inactive)
- GI50 (NCI-H23): 43.9 µM (inactive)
- GI50 (OVCAR-3): 23.9 µM (inactive)
- GI50 (OVCAR-4): 39.7 µM (inactive)
- GI50 (OVCAR-5): > 100 µM (inactive)
- GI50 (OVCAR-8): 38.5 µM (inactive)
- GI50 (RPMI-8226): 39.1 µM (inactive)
- GI50 (SF-295): 57.8 µM (inactive)
- GI50 (SK-MEL-28): 38.1 µM (inactive)
- GI50 (SNB-75): 47.6 µM (inactive)
- GI50 (UACC-62): > 10 µM (inactive)

Structure (SMILES): Cn1cnc(S[C@H]2[C@H]3C(=O)C=C4S[C@H]5C[C@]42C2=C(N5)C(=O)c4[nH]cc5c4C2=[N+]3CC5)c1C[C@H](N)C(=O)O
- GI50 (A498): 18.8 µM (inactive)
- GI50 (A549): 20.4 µM (inactive)
- GI50 (COLO 205): 2.11 µM (inactive)
- GI50 (HCT-116): 3.7 µM (inactive)
- GI50 (HL-60): 15.3 µM (inactive)
- GI50 (KM12): 16.7 µM (inactive)
- GI50 (NCI-H226): 19.4 µM (inactive)
- GI50 (NCI-H23): 10.7 µM (inactive)
- GI50 (OVCAR-3): 3.5 µM (inactive)
- GI50 (OVCAR-4): 17.1 µM (inactive)
- GI50 (OVCAR-5): 15.1 µM (inactive)
- GI50 (OVCAR-8): 13.6 µM (inactive)
- GI50 (RPMI-8226): 16.7 µM (inactive)
- GI50 (SF-295): 15.8 µM (inactive)
- GI50 (SK-MEL-28): 16.8 µM (inactive)
- GI50 (SNB-75): 18.7 µM (inactive)
- GI50 (UACC-62): 15.7 µM (inactive)

Structure (SMILES): Cc1cnc[nH]c1=O
- GI50 (A498): > 100 µM (inactive)
- GI50 (A549): > 100 µM (inactive)
- GI50 (COLO 205): > 100 µM (inactive)
- GI50 (HCT-116): > 100 µM (inactive)
- GI50 (HL-60): > 100 µM (inactive)
- GI50 (KM12): > 100 µM (inactive)
- GI50 (NCI-H226): > 100 µM (inactive)
- GI50 (NCI-H23): > 100 µM (inactive)
- GI50 (OVCAR-3): > 100 µM (inactive)
- GI50 (OVCAR-4): > 100 µM (inactive)
- GI50 (OVCAR-5): > 100 µM (inactive)
- GI50 (OVCAR-8): > 100 µM (inactive)
- GI50 (RPMI-8226): > 100 µM (inactive)
- GI50 (SF-295): > 100 µM (inactive)
- GI50 (SK-MEL-28): > 100 µM (inactive)
- GI50 (SNB-75): > 100 µM (inactive)
- GI50 (UACC-62): > 100 µM (inactive)

Structure (SMILES): Cc1ccc(Oc2ccc([N+](=O)[O-])cc2[N+](=O)[O-])c(C)c1
- GI50 (A498): 37.9 µM (inactive)
- GI50 (A549): 34.1 µM (inactive)
- GI50 (HCT-116): 30.3 µM (inactive)
- GI50 (HL-60): 22.9 µM (inactive)
- GI50 (KM12): > 10 µM (inactive)
- GI50 (NCI-H226): 44.9 µM (inactive)
- GI50 (NCI-H23): 28.7 µM (inactive)
- GI50 (OVCAR-3): 35.2 µM (inactive)
- GI50 (OVCAR-4): 32.2 µM (inactive)
- GI50 (OVCAR-5): 82.8 µM (inactive)
- GI50 (OVCAR-8): 59.2 µM (inactive)
- GI50 (RPMI-8226): 26.5 µM (inactive)
- GI50 (SF-295): 49.3 µM (inactive)
- GI50 (SK-MEL-28): 67.8 µM (inactive)
- GI50 (SNB-75): 37.5 µM (inactive)
- GI50 (UACC-62): 45 µM (inactive)

Structure (SMILES): COC(=O)C(=O)C(C(=O)C(=O)Nc1ccccc1C(N)=O)c1nc2ccc([N+](=O)[O-])cc2nc1O (centres undefined)
- GI50 (A498): > 100 µM (inactive)
- GI50 (A549): > 100 µM (inactive)
- GI50 (COLO 205): > 100 µM (inactive)
- GI50 (HCT-116): > 100 µM (inactive)
- GI50 (HL-60): > 100 µM (inactive)
- GI50 (KM12): > 100 µM (inactive)
- GI50 (NCI-H226): > 100 µM (inactive)
- GI50 (NCI-H23): > 100 µM (inactive)
- GI50 (OVCAR-4): > 100 µM (inactive)
- GI50 (OVCAR-5): > 100 µM (inactive)
- GI50 (OVCAR-8): > 100 µM (inactive)
- GI50 (RPMI-8226): > 100 µM (inactive)
- GI50 (SF-295): > 100 µM (inactive)
- GI50 (SK-MEL-28): > 100 µM (inactive)
- GI50 (SNB-75): > 100 µM (inactive)
- GI50 (UACC-62): > 100 µM (inactive)

Reference: ChEMBL document CHEMBL1201862, “PubChem BioAssay data set” (2004)
